Laboratory results reported in ChEMBL document CHEMBL1201862, “PubChem BioAssay data set” (2004).
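Method: 48-hour compound exposure of cells in 96-well plates, five concentrations, linear interpolation of endpoints. GI50 is the concentration that inhibits growth by half.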 Calls of active or inactive are those of the source. Rule as the data show it: active = GI50 up to about 1.1 µM and inactive = higher.

Key:
Assay in all cases: DTP human tumour cell line panel, 48 h
[1] = system: SR
[2] = system: BT-549
[3] = system: NCI-H522
[4] = system: NCI-H23
[5] = system: ACHN
[6] = system: UACC-62
[7] = system: SF-268
[8] = system: Malme-3M
[9] = system: HOP-92
[10] = system: LOX IMVI
[11] = system: M14
[12] = system: HCT-116
[13] = system: HT-29
[14] = system: RPMI-8226
[15] = system: 786-0
[16] = system: NCI-H460
[17] = system: SK-OV-3
[18] = system: MCF7
[19] = system: MDA-MB-435
[20] = system: NCI-H226

**Q.** `N#Cc1ccc(Nc2nc3[nH]cnc3c(=O)[nH]2)cc1` was tested. Which GI50 [1] did it give?
**A.** > 100 µM (inactive)

**Q.** What about the GI50 [2] of the same molecule?
**A.** > 100 µM (inactive)

**Q.** What about the GI50 [3] of the same molecule?
**A.** > 100 µM (inactive)

**Q.** What about the GI50 [4] of the same molecule?
**A.** > 100 µM (inactive)

**Q.** What about the GI50 [5] of the same molecule?
**A.** > 100 µM (inactive)

**Q.** What about the GI50 [6] of the same molecule?
**A.** > 100 µM (inactive)

**Q.** What about the GI50 [7] of the same molecule?
**A.** > 100 µM (inactive)

**Q.** And the GI50 [8]?
**A.** > 100 µM (inactive)

**Q.** What about the GI50 [9] of the same molecule?
**A.** > 100 µM (inactive)

**Q.** What about the GI50 [10] of the same molecule?
**A.** > 100 µM (inactive)

**Q.** What about the GI50 [11] of the same molecule?
**A.** > 100 µM (inactive)

**Q.** And the GI50 [12]?
**A.** > 100 µM (inactive)

**Q.** And the GI50 [13]?
**A.** > 100 µM (inactive)

**Q.** What about the GI50 [14] of the same molecule?
**A.** > 100 µM (inactive)

**Q.** And the GI50 [15]?
**A.** > 100 µM (inactive)

**Q.** What about the GI50 [16] of the same molecule?
**A.** > 100 µM (inactive)

**Q.** What about the GI50 [17] of the same molecule?
**A.** > 100 µM (inactive)

**Q.** What about the GI50 [18] of the same molecule?
**A.** > 100 µM (inactive)

**Q.** What about the GI50 [19] of the same molecule?
**A.** > 100 µM (inactive)

**Q.** And the GI50 [20]?
**A.** > 100 µM (inactive)

**Q.** Which results are given for `c1ccc2cc(NCNc3ccc4ccccc4c3)ccc2c1`?
**A.** GI50 [1]: 2.42 µM (inactive); GI50 [2]: 24.9 µM (inactive); GI50 [3]: 17.6 µM (inactive); GI50 [4]: 12.2 µM (inactive); GI50 [5]: 16.3 µM (inactive); GI50 [6]: 14.7 µM (inactive); GI50 [7]: 38.8 µM (inactive); GI50 [8]: 0.927 µM (active); GI50 [9]: 1.27 µM (inactive); GI50 [10]: 10.8 µM (inactive); GI50 [11]: 15.5 µM (inactive); GI50 [12]: 16.7 µM (inactive); GI50 [13]: 19 µM (inactive); GI50 [14]: 6.1 µM (inactive); GI50 [15]: 17.3 µM (inactive); GI50 [16]: 13.4 µM (inactive); GI50 [17]: 33.6 µM (inactive); GI50 [18]: 11.8 µM (inactive); GI50 [19]: 1.78 µM (inactive); GI50 [20]: 17.2 µM (inactive)

**Q.** For `C=CCSc1nc2c(N)ncnc2n1C1OC(CO)C(O)C1O` (stereo not given), which GI50 [1] is on record?
**A.** > 100 µM (inactive)

**Q.** And the GI50 [2]?
**A.** > 100 µM (inactive)

**Q.** And the GI50 [3]?
**A.** > 100 µM (inactive)

**Q.** What about the GI50 [4] of the same molecule?
**A.** > 100 µM (inactive)

**Q.** What about the GI50 [5] of the same molecule?
**A.** > 100 µM (inactive)

**Q.** And the GI50 [6]?
**A.** > 100 µM (inactive)

**Q.** And the GI50 [7]?
**A.** > 100 µM (inactive)

**Q.** What about the GI50 [8] of the same molecule?
**A.** > 100 µM (inactive)

**Q.** What about the GI50 [9] of the same molecule?
**A.** > 100 µM (inactive)

**Q.** What about the GI50 [10] of the same molecule?
**A.** > 100 µM (inactive)

**Q.** What about the GI50 [11] of the same molecule?
**A.** > 100 µM (inactive)

**Q.** And the GI50 [12]?
**A.** > 100 µM (inactive)

**Q.** And the GI50 [13]?
**A.** > 100 µM (inactive)

**Q.** What about the GI50 [14] of the same molecule?
**A.** > 100 µM (inactive)

**Q.** What about the GI50 [15] of the same molecule?
**A.** > 100 µM (inactive)

**Q.** What about the GI50 [16] of the same molecule?
**A.** > 100 µM (inactive)

**Q.** What about the GI50 [17] of the same molecule?
**A.** > 100 µM (inactive)

**Q.** And the GI50 [18]?
**A.** > 100 µM (inactive)

**Q.** What about the GI50 [19] of the same molecule?
**A.** > 100 µM (inactive)

**Q.** And the GI50 [20]?
**A.** > 100 µM (inactive)

**Q.** For `N[C@H]1c2c(Br)sc(Br)c2C(=O)[C@H]1O`, which GI50 [1] is on record?
**A.** 2.69 µM (inactive)

**Q.** What about the GI50 [2] of the same molecule?
**A.** 6.3 µM (inactive)

**Q.** What about the GI50 [3] of the same molecule?
**A.** 3.18 µM (inactive)

**Q.** And the GI50 [4]?
**A.** 3.64 µM (inactive)

**Q.** What about the GI50 [5] of the same molecule?
**A.** 24.7 µM (inactive)

**Q.** And the GI50 [6]?
**A.** 6.79 µM (inactive)

**Q.** What about the GI50 [7] of the same molecule?
**A.** 24.9 µM (inactive)

**Q.** And the GI50 [8]?
**A.** 11.6 µM (inactive)

**Q.** What about the GI50 [9] of the same molecule?
**A.** 21.5 µM (inactive)

**Q.** What about the GI50 [10] of the same molecule?
**A.** 3.61 µM (inactive)

**Q.** And the GI50 [11]?
**A.** 8.69 µM (inactive)

**Q.** And the GI50 [12]?
**A.** 16.4 µM (inactive)

**Q.** And the GI50 [13]?
**A.** 11.2 µM (inactive)

**Q.** What about the GI50 [14] of the same molecule?
**A.** 27.4 µM (inactive)

**Q.** And the GI50 [15]?
**A.** 18.6 µM (inactive)

**Q.** And the GI50 [16]?
**A.** 19.2 µM (inactive)

**Q.** And the GI50 [17]?
**A.** 12.3 µM (inactive)

**Q.** What about the GI50 [18] of the same molecule?
**A.** 13.3 µM (inactive)

**Q.** And the GI50 [19]?
**A.** 13.7 µM (inactive)

**Q.** And the GI50 [20]?
**A.** 22.2 µM (inactive)

**Q.** How did the GI50 [1] turn out when `N#Cc1c(-c2ccc([N+](=O)[O-])cc2)c2c([nH]c1=O)-c1ccccc1CCC2` was run?
**A.** 29.6 µM (inactive)

**Q.** And the GI50 [2]?
**A.** 24.9 µM (inactive)

**Q.** And the GI50 [3]?
**A.** 41.5 µM (inactive)

**Q.** And the GI50 [4]?
**A.** > 100 µM (inactive)

**Q.** And the GI50 [5]?
**A.** 37.5 µM (inactive)

**Q.** And the GI50 [6]?
**A.** 28.1 µM (inactive)

**Q.** What about the GI50 [7] of the same molecule?
**A.** 68.7 µM (inactive)

**Q.** And the GI50 [8]?
**A.** 56.6 µM (inactive)

**Q.** And the GI50 [9]?
**A.** 1.48 µM (inactive)

**Q.** And the GI50 [10]?
**A.** 56.6 µM (inactive)

**Q.** What about the GI50 [11] of the same molecule?
**A.** > 100 µM (inactive)

**Q.** And the GI50 [12]?
**A.** 60.4 µM (inactive)

**Q.** What about the GI50 [13] of the same molecule?
**A.** 55.3 µM (inactive)

**Q.** And the GI50 [14]?
**A.** 30.8 µM (inactive)

**Q.** What about the GI50 [15] of the same molecule?
**A.** > 100 µM (inactive)

**Q.** And the GI50 [16]?
**A.** 51.1 µM (inactive)

**Q.** What about the GI50 [17] of the same molecule?
**A.** > 100 µM (inactive)

**Q.** And the GI50 [18]?
**A.** 33.4 µM (inactive)

**Q.** What about the GI50 [19] of the same molecule?
**A.** 67.1 µM (inactive)

**Q.** What about the GI50 [20] of the same molecule?
**A.** 44 µM (inactive)

**Q.** With `CCCCCCNC(=O)c1cnc(Cl)cn1` as the molecule, how does the GI50 [1] read?
**A.** 4.3 µM (inactive)

**Q.** What about the GI50 [2] of the same molecule?
**A.** 26.2 µM (inactive)

**Q.** What about the GI50 [3] of the same molecule?
**A.** 0.206 µM (active)

**Q.** What about the GI50 [4] of the same molecule?
**A.** 11.1 µM (inactive)

**Q.** And the GI50 [5]?
**A.** 2.36 µM (inactive)

**Q.** What about the GI50 [6] of the same molecule?
**A.** 17.2 µM (inactive)

**Q.** What about the GI50 [7] of the same molecule?
**A.** 14.3 µM (inactive)

**Q.** What about the GI50 [8] of the same molecule?
**A.** 16.7 µM (inactive)

**Q.** What about the GI50 [9] of the same molecule?
**A.** 3.15 µM (inactive)

**Q.** And the GI50 [10]?
**A.** 14.6 µM (inactive)

**Q.** What about the GI50 [11] of the same molecule?
**A.** 13.2 µM (inactive)

**Q.** And the GI50 [12]?
**A.** 17.1 µM (inactive)

**Q.** What about the GI50 [13] of the same molecule?
**A.** 33.1 µM (inactive)

**Q.** And the GI50 [14]?
**A.** 29 µM (inactive)

**Q.** And the GI50 [15]?
**A.** 26.1 µM (inactive)

**Q.** What about the GI50 [16] of the same molecule?
**A.** 19.3 µM (inactive)

**Q.** What about the GI50 [17] of the same molecule?
**A.** 22.9 µM (inactive)

**Q.** And the GI50 [18]?
**A.** 5.15 µM (inactive)

**Q.** And the GI50 [19]?
**A.** 15.6 µM (inactive)

**Q.** What about the GI50 [20] of the same molecule?
**A.** 10 µM (inactive)

**Q.** `CCOC(=O)C(=O)NNc1nc2c(s1)C(=O)c1ccccc1C2=O` was tested. Which GI50 [1] did it give?
**A.** 0.465 µM (active)

**Q.** What about the GI50 [2] of the same molecule?
**A.** 10.9 µM (inactive)

**Q.** And the GI50 [3]?
**A.** 4.49 µM (inactive)

**Q.** What about the GI50 [4] of the same molecule?
**A.** 2.24 µM (inactive)

**Q.** And the GI50 [5]?
**A.** 2.29 µM (inactive)

**Q.** And the GI50 [6]?
**A.** 4.94 µM (inactive)

**Q.** And the GI50 [7]?
**A.** 4.12 µM (inactive)

**Q.** And the GI50 [8]?
**A.** 1.95 µM (inactive)

**Q.** And the GI50 [9]?
**A.** 10.5 µM (inactive)

**Q.** And the GI50 [10]?
**A.** 1.75 µM (inactive)

**Q.** What about the GI50 [11] of the same molecule?
**A.** 2.08 µM (inactive)

**Q.** And the GI50 [12]?
**A.** 2.68 µM (inactive)

**Q.** What about the GI50 [13] of the same molecule?
**A.** 19.1 µM (inactive)

**Q.** What about the GI50 [14] of the same molecule?
**A.** 2.65 µM (inactive)

**Q.** And the GI50 [15]?
**A.** 10.6 µM (inactive)

**Q.** And the GI50 [16]?
**A.** 10.7 µM (inactive)

**Q.** What about the GI50 [17] of the same molecule?
**A.** 20 µM (inactive)

**Q.** And the GI50 [18]?
**A.** 15.6 µM (inactive)

**Q.** What about the GI50 [19] of the same molecule?
**A.** 1.77 µM (inactive)

**Q.** And the GI50 [20]?
**A.** 15.7 µM (inactive)
